# pIC50: −log10 of the molar value.
# Test system: 648629-189-R-J1-PDC complex spheroids viability
# Assay: Anticancer human tumor 648629-189-R-J1-PDC patient-derived bladder carcinoma cell line growth inhibition [CLK]
# Details: for pIC50: curve of first compound; for viability, T/C: stronger effect = lower value
# How it was run: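 Multi-cell-type spheroids combined patient-derived tumor cells with HUVEC endothelial cells and human mesenchymal stem cells. Paired agents were dosed in half-log steps down from about clinical Cmax, or from 10 microM where Cmax was unknown.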
# [1] = second compound 0.0316 µM, first compound 0.0316 µM
# [2] = second compound 0.0316 µM, first compound 0.1 µM
# [3] = second compound 0.0316 µM, first compound 0.316 µM
# [4] = second compound 0.0316 µM, first compound 1 µM
# [5] = second compound 0.0316 µM, first compound 3.16 µM
# [6] = second compound 0.0316 µM, first compound 10 µM
# [7] = second compound 0.1 µM, first compound 0.0316 µM
# [8] = second compound 0.1 µM, first compound 0.1 µM
# [9] = second compound 0.1 µM, first compound 0.316 µM
# [10] = second compound 0.1 µM, first compound 1 µM
# [11] = second compound 0.1 µM, first compound 3.16 µM
# [12] = second compound 0.1 µM, first compound 10 µM
# [13] = second compound 0.316 µM, first compound 0.0316 µM
# [14] = second compound 0.316 µM, first compound 0.1 µM
# [15] = second compound 0.316 µM, first compound 0.316 µM
# [16] = second compound 0.316 µM, first compound 1 µM
# [17] = second compound 0.316 µM, first compound 3.16 µM
# [18] = second compound 0.316 µM, first compound 10 µM
# [19] = second compound 1 µM, first compound 0.0316 µM
# [20] = second compound 1 µM, first compound 0.1 µM
# [21] = second compound 1 µM, first compound 0.316 µM
# [22] = second compound 1 µM, first compound 1 µM
# [23] = second compound 1 µM, first compound 3.16 µM
# [24] = second compound 1 µM, first compound 10 µM
# [25] = second compound 3.16 µM, first compound 0.0316 µM
# [26] = second compound 3.16 µM, first compound 0.1 µM
# [27] = second compound 3.16 µM, first compound 0.316 µM
# [28] = second compound 3.16 µM, first compound 1 µM
# [29] = second compound 3.16 µM, first compound 3.16 µM
# [30] = second compound 3.16 µM, first compound 10 µM
# [31] = second compound 10 µM, first compound 0.0316 µM
# [32] = second compound 10 µM, first compound 0.1 µM
# [33] = second compound 10 µM, first compound 0.316 µM
# [34] = second compound 10 µM, first compound 1 µM
# [35] = second compound 10 µM, first compound 3.16 µM
# [36] = second compound 10 µM, first compound 10 µM
# 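Throughout, for viability, T/C: drug exposure lasted seven days before viability readout; 100% = DMSO vehicle control wells.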
smiles,measurement,setting,value
COc1cccc2c1C(=O)c1c(O)c3c(c(O)c1C2=O)CC(O)(C(=O)CO)CC3OC1CC(N)C(O)C(C)O1 (stereo unspecified) + CNC(=O)c1ccc(Nc2nc(OC3CCCC3)c3c(-c4ccc5nc(C)oc5c4)c[nH]c3n2)c(OC)c1,pIC50,second compound 0.0316 µM,> 7.50
same,pIC50,second compound 0.1 µM,> 7.50
same,pIC50,second compound 0.316 µM,> 7.50
same,pIC50,second compound 1 µM,> 7.50
same,pIC50,second compound 3.16 µM,> 7.50
same,pIC50,second compound 10 µM,> 7.50
same,"viability, T/C",[1],26.4%
same,"viability, T/C",[2],13.9%
same,"viability, T/C",[3],5.64%
same,"viability, T/C",[4],0.45%
same,"viability, T/C",[5],0.38%
same,"viability, T/C",[6],0.54%
same,"viability, T/C",[7],19.4%
same,"viability, T/C",[8],11.8%
same,"viability, T/C",[9],5.03%
same,"viability, T/C",[10],0.29%
same,"viability, T/C",[11],1.37%
same,"viability, T/C",[12],2.64%
same,"viability, T/C",[13],16.4%
same,"viability, T/C",[14],13.1%
same,"viability, T/C",[15],6.53%
same,"viability, T/C",[16],0.2%
same,"viability, T/C",[17],0.98%
same,"viability, T/C",[18],0.49%
same,"viability, T/C",[19],12.5%
same,"viability, T/C",[20],10.1%
same,"viability, T/C",[21],4.27%
same,"viability, T/C",[22],0.27%
same,"viability, T/C",[23],0.56%
same,"viability, T/C",[24],3.36%
same,"viability, T/C",[25],18.9%
same,"viability, T/C",[26],13.1%
same,"viability, T/C",[27],4.42%
same,"viability, T/C",[28],0.23%
same,"viability, T/C",[29],0.79%
same,"viability, T/C",[30],1.4%
same,"viability, T/C",[31],21.1%
same,"viability, T/C",[32],13.5%
same,"viability, T/C",[33],8.07%
same,"viability, T/C",[34],0.28%
same,"viability, T/C",[35],2.28%
same,"viability, T/C",[36],3.42%
Nc1ccn(C2OC(CO)C(O)C2(F)F)c(=O)n1 (stereo unspecified) + CNC(=O)c1ccc(Nc2nc(OC3CCCC3)c3c(-c4ccc5nc(C)oc5c4)c[nH]c3n2)c(OC)c1,pIC50,second compound 0.0316 µM,7.42
same,pIC50,second compound 0.1 µM,7.38
same,pIC50,second compound 0.316 µM,> 7.50
same,pIC50,second compound 1 µM,> 7.50
same,pIC50,second compound 3.16 µM,> 7.50
same,pIC50,second compound 10 µM,> 7.50
same,"viability, T/C",[1],56.8%
same,"viability, T/C",[2],16.1%
same,"viability, T/C",[3],10.6%
same,"viability, T/C",[4],8.41%
same,"viability, T/C",[5],8.43%
same,"viability, T/C",[6],6.82%
same,"viability, T/C",[7],58.7%
same,"viability, T/C",[8],23.9%
same,"viability, T/C",[9],10.1%
same,"viability, T/C",[10],8.46%
same,"viability, T/C",[11],7.09%
same,"viability, T/C",[12],5.88%
same,"viability, T/C",[13],18.1%
same,"viability, T/C",[14],14.3%
same,"viability, T/C",[15],8.69%
same,"viability, T/C",[16],7.21%
same,"viability, T/C",[17],7.97%
same,"viability, T/C",[18],6.5%
same,"viability, T/C",[19],18.2%
same,"viability, T/C",[20],13.3%
same,"viability, T/C",[21],11.8%
same,"viability, T/C",[22],8.47%
same,"viability, T/C",[23],9.1%
same,"viability, T/C",[24],7.07%
same,"viability, T/C",[25],16.2%
same,"viability, T/C",[26],14.8%
same,"viability, T/C",[27],11.2%
same,"viability, T/C",[28],11.7%
same,"viability, T/C",[29],11.2%
same,"viability, T/C",[30],7.1%
same,"viability, T/C",[31],18.1%
same,"viability, T/C",[32],18%
same,"viability, T/C",[33],14.7%
same,"viability, T/C",[34],10.1%
same,"viability, T/C",[35],9.44%
same,"viability, T/C",[36],7.39%
O=c1[nH]cc(F)c(=O)[nH]1 + CNC(=O)c1ccc(Nc2nc(OC3CCCC3)c3c(-c4ccc5nc(C)oc5c4)c[nH]c3n2)c(OC)c1,pIC50,second compound 0.0316 µM,6.06
same,pIC50,second compound 0.1 µM,6.27
same,pIC50,second compound 0.316 µM,> 7.50
same,pIC50,second compound 1 µM,> 7.50
same,pIC50,second compound 3.16 µM,> 7.50
same,pIC50,second compound 10 µM,> 7.50
same,"viability, T/C",[1],107%
same,"viability, T/C",[2],95.1%
same,"viability, T/C",[3],77.4%
same,"viability, T/C",[4],45.8%
same,"viability, T/C",[5],33.2%
same,"viability, T/C",[6],32.5%
same,"viability, T/C",[7],79.9%
same,"viability, T/C",[8],86.9%
same,"viability, T/C",[9],64.8%
same,"viability, T/C",[10],32.2%
same,"viability, T/C",[11],23.9%
same,"viability, T/C",[12],22.9%
same,"viability, T/C",[13],21%
same,"viability, T/C",[14],23.6%
same,"viability, T/C",[15],22.2%
same,"viability, T/C",[16],11.9%
same,"viability, T/C",[17],12.8%
same,"viability, T/C",[18],10.3%
same,"viability, T/C",[19],15.8%
same,"viability, T/C",[20],18.7%
same,"viability, T/C",[21],15.7%
same,"viability, T/C",[22],11.2%
same,"viability, T/C",[23],9.79%
same,"viability, T/C",[24],9.97%
same,"viability, T/C",[25],21.1%
same,"viability, T/C",[26],20.4%
same,"viability, T/C",[27],18.6%
same,"viability, T/C",[28],10.2%
same,"viability, T/C",[29],10.9%
same,"viability, T/C",[30],10.6%
same,"viability, T/C",[31],17.8%
same,"viability, T/C",[32],14.8%
same,"viability, T/C",[33],17.4%
same,"viability, T/C",[34],11.4%
same,"viability, T/C",[35],11.5%
same,"viability, T/C",[36],9.63%
